A value given as a limit tells only on which side of the number the result lay.

We go through six compounds from US7317030B2, “Compounds as inhibitors of cell proliferation and viral infections” (4SC AG, priority 2004, dated 2008).

T1 sequence (P16390 whole entry): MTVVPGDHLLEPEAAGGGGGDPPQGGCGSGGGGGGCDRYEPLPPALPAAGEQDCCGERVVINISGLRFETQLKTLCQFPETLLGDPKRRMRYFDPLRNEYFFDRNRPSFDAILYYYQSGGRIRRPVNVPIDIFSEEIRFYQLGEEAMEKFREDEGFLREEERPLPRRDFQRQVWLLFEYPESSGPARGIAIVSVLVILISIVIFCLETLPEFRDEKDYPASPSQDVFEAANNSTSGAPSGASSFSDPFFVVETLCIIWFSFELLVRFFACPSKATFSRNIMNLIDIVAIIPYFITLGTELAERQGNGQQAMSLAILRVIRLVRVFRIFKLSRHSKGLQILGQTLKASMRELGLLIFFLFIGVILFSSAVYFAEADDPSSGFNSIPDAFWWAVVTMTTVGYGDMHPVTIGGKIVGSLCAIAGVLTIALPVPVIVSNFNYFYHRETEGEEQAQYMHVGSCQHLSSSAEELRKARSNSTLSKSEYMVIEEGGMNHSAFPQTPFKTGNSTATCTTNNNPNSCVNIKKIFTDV

One test addresses T1, Kv1.3 channels (Mus musculus, UniProt P16390).
T1 construct: expressed in transfected cells; host or cells: L929 cells, stably transfected
The experiment in a line: Kv1.3 assay, whole-cell patch-clamp in stably transfected L929 cells. Conditions: c=20 μM, two cells per compound. It counts as cell-based. The procedure: The inhibition of Kv1.3 was measured in stable transfected cell lines expressing mouse Kv1.3 using the patch-clamp technique (Rauer H et al. J Biol Chem Vol. 275, No. 2, 1201-1208, 2000), Rauer H Mol Pharmacol, 50, 1625-1634, 1996, Rauer H et al. J Pharmacol, 127, 1065-1074, 1999).
Stable transfected L929 cells with Kv1.3 channels were grown in DMEM (Glutamax-I) media with 10% FCS, geneticin 330 μg/ml under 10% CO2 atmosphere.
Whole-cell patch-clamp configuration, with an external bath solution of 160 mM NaCl, 4, 5 mM KCl, 1 mM MgCl, 2 mM CaCl2, 5 mM HEPES, 10 mM EGTA and NaOH adjusted to pH 7.4. Internal pipette solution for recording was 155 mM KF, 2 mM MgCl2, 10 mM HEPES, 10 mM EGTA with KOH adjusted to pH 7.2. Currents were activated by a 200-ms voltage step from a holding potential of −80 to 40 mV every 30 s. Holding potential −80 mV.
Each compound was tested on two different cells. The cell was perfused with external bath solution (black line), then the compound was applied (c=20 μM). The resulting stedy-state current traces are shown as red lines. Example 3, 5, 6, 7, 8 are blockers.
(In general: Patch clamp records ionic current or voltage across a cell membrane.)
As to `O=C(Nc1ccc(C2=N[C@H](Cc3ccccc3)CO2)cc1)Nc1ccc(S(=O)(=O)NCc2cc(F)c(F)c(F)c2)cc1` [Example 3, 4-{3-[4-(4-(R)-Benzyl-4,5-dihydro-oxazol-2-yl)-phenyl]-ureido}-N-(3,4,5-trifluoro-benzyl)-benzenesulfonamide], the Kv1.3 channel block entry is “blockers”.

Turning to `O=C(Nc1cccc(C2=N[C@@H](c3ccccc3)CO2)c1)Nc1cccc(C(F)(F)F)c1` [Example 6, 1-[3-(4-(S)-Phenyl-4,5-dihydro-oxazol-2-yl)-phenyl]-3-(3-trifluoromethyl-phenyl)-urea], the Kv1.3 channel block result was “blockers”.

`O=C(Nc1cccc(C2=N[C@H](Cc3ccccc3)CO2)c1)Nc1cccc(C(F)(F)F)c1` [Example 7, 1-[3-(4-(R)-Benzyl-4,5-dihydro-oxazol-2-yl)-phenyl]-3-(3-trifluoromethyl-phenyl)-urea]: the Kv1.3 channel block result is “blockers”.

As to `O=C(Nc1cccc(C2=N[C@H](c3ccccc3)CO2)c1)Nc1cccc(C(F)(F)F)c1` [Example 5, 1-[3-(4-(R)-Phenyl-4,5-dihydro-oxazol-2-yl)-phenyl]-3-(3-trifluoromethyl-phenyl)-urea], the Kv1.3 channel block result is given as “blockers”.

Turning to `O=C(Nc1cccc(C2=N[C@@H](Cc3ccccc3)CO2)c1)Nc1cccc(C(F)(F)F)c1` [Example 8, 1-[3-(4-(S)-Benzyl-4,5-dihydro-oxazol-2-yl)-phenyl]-3-(3-trifluoromethyl-phenyl)-urea], the Kv1.3 channel block entry is listed as “blockers”.

In another test the target is IMPDH. The experiment in a line: IMPDH enzyme assay (NADH release at 340 nm). The conditions noted are these: 0.2 mM IMP, 0.4 mM NAD, 37° C. The test is classed as biochemical, human. The procedure: IMPDH Enzyme-Assay: For measuring IMPDH activity in vitro, the substrate inosine monophosphate (IMP) and enzyme, with or without inhibitor, are mixed together. […] The released NADH is measured at 340 nm. The assay is performed in PMMA half micro liter cuvettes, the total assay volume is 1 mL. 500 μl of 2× assay buffer (200 mM Tris/HCl, pH 8.0, 200 mM KCl, 6 mM EDTA and 4 mM DTT) are mixed with 10 μL of a freshly prepared 20 mM IMP solution (0.2 mM final concentration) and 10 μL of enzyme (0.03 U/mL). An appropriate amount of inhibitor is dissolved in 100% DMSO. 10 μL of this solution are added to the assay mix (1% DMSO final concentration). Finally 455 μL of deionized water are added to give the final volume of 1 mL. The mixture is incubated for 10 min at 37° C. The enzyme reaction is started by addition of 25 μL of a 16 mM NAD solution (0.4 mM final concentration). Reaction is followed for 30 min at 37° C. at 340 nm. The enzyme reaction runs linear with respect to time during the 30 min. The slopes of the resulting curves are calculated and results are presented in % of residual activity, which is calculated as % activity=(slope with inhibitor/slope without inhibitor) *100. For the determination of the IC50 values (concentration of inhibitor required for 50% inhibition) at least four different inhibitor concentrations were applied. Each data point was recorded in triplicates. […]
Consider `COc1cc(NC(=O)Nc2ccc(S(=O)(=O)N3CCOCC3)cc2)ccc1C#N` [Example 15, 1-(4-Cyano-3-methoxy-phenyl)-3-[4-(morpholine-4-sulfonyl)-phenyl]-urea], for which the IC50 (as a rule, the concentration that gives 50% inhibition) is below 5 µM.
